# Reference: patent US20230339874A1, “PIPERAZINYL COMPOUNDS AND METHODS FOR TREATING NEMATODE INFECTIONS” (The Governing Council of the University of Toronto, priority 2020, published 2023)
# Read-outs that look alike come from different tables or passages of the source.
# How the values were obtained:
# Strongyloides ratti L3 = type: in vivo; conditions: 72 h incubation, 1 replicate
# [1] = test system: Heligmosomoides polygyrus larval stage 3 (L3) worms; type: in vivo; conditions: 72 h incubation, one replicate
# rat VAChT = target: T1, rat VAChT (Rattus norvegicus, UniProt Q62666); test: Competition binding, displacement of [3H]vesamicol from rat VAChT
# T1 sequence (Q62666 1-530): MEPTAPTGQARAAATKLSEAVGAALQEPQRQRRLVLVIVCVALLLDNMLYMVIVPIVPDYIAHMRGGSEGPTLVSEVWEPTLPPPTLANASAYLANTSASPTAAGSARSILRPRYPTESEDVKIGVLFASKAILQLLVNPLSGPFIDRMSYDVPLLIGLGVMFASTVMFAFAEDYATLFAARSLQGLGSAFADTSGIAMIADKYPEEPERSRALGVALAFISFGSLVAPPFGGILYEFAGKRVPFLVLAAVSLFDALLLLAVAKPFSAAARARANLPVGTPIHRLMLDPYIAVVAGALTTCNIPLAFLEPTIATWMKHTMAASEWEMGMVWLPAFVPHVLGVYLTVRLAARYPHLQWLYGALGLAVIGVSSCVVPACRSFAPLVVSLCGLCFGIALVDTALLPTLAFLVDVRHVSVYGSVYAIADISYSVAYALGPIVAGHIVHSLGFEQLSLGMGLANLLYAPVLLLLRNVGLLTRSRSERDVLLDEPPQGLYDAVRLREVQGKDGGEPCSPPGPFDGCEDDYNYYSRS
# [2] = test system: Danio rerio (zebrafish) embryos; test: Danio rerio (zebrafish) embryo abnormal developmental phenotype; type: in vivo; conditions: read-out: D. rerio (zebrafish) any phenotype EC50 (μM)
# C. elegans L3 larvae = C. elegans L3 larvae abnormal locomotory behaviour on solid agar; conditions: solid agar MYOB + E. coli OP50, mean of 4 replicates; for % C. elegans L3 larvae any phene 1 h (conc.): 1 h exposure; for % C. elegans L3 larvae any phene 6 h (conc.): 6 h exposure; for % C. elegans L3 larvae any phene 24 h (conc.): 24 h exposure
# Method: 20 animals were scored after either 1, 6 or 24 hours of exposure to drug (as indicated) per replicate. […] Data are reported as the mean % of animals with abnormal phenotype over 4 independent replicates.
# [3] = test system: D. immitis larval stage 3 (L3) worms; test: D. immitis L3 development assay; type: in vivo; conditions: 72 h, read-out: D. immitis L3 development EC50 (μM)
# [4] = test system: Pristionchus pacificus young adult animals; test: Pristionchus pacificus young adult abnormal locomotory behaviour on solid agar; type: in vivo; conditions: 1 h, read-out: P. pacificus, young adult 1 h any phene at 1 h (EC50 (μM))
# D. immitis microfilariae = D. immitis microfilariae immobility assay; type: in vivo; conditions: 72 h, read-out: D. immitis microfilariae immobility EC50 (μM)
# [5] = displacement of [3H]vesamicol, rat VAChT expressed in P12 cells, read-out: ratVAChT Ki
Compound,S. ratti L3 % lethality 25 μM (Strongyloides ratti L3) [%],H. Polygyrus % lethality L3 25 μM [1] [%],Ki (rat VAChT; [5]) [µM],EC50 [2] [µM],% C. elegans L3 larvae any phene 1 h (conc.) (C. elegans L3 larvae; 3.75 uM) [%],% C. elegans L3 larvae any phene 6 h (conc.) (C. elegans L3 larvae; 3.75 uM) [%],% C. elegans L3 larvae any phene 24 h (conc.) (C. elegans L3 larvae; 3.75 uM) [%],% C. elegans L3 larvae any phene 1 h (conc.) (C. elegans L3 larvae; 15 uM) [%],% C. elegans L3 larvae any phene 6 h (conc.) (C. elegans L3 larvae; 15 uM) [%],% C. elegans L3 larvae any phene 24 h (conc.) (C. elegans L3 larvae; 15 uM) [%],% C. elegans L3 larvae any phene 1 h (conc.) (C. elegans L3 larvae; 60 uM) [%],% C. elegans L3 larvae any phene 6 h (conc.) (C. elegans L3 larvae; 60 uM) [%],% C. elegans L3 larvae any phene 24 h (conc.) (C. elegans L3 larvae; 60 uM) [%],EC50 [3] [µM],EC50 [4] [µM],EC50 (D. immitis microfilariae) [µM],Ki (rat VAChT) [µM]
Cc1ccc(N2CCN(C3CCC(C)C3)CC2)cc1 (centres unmarked) [VI-a],28.1,31.6,0.411,> 15,58.3,1.7,0.0,98.3,74.2,20.0,100.0,100.0,100.0,> 50,,,
Cc1cc(N2CCN(CC3CCCCC3)CC2)ccc1[N+](=O)[O-] [V-b],,,,5.1,2.5,0.0,0.0,20.8,3.3,0.0,62.5,41.7,9.2,14,> 60,5.1,
Cc1ccc(N2CCN(CC3CC=CCC3)CC2)cc1 (centres unmarked) [VI-e],31.6,0,0.208,32.5,36.7,5.8,0.0,96.7,46.7,5.0,100.0,100.0,99.2,,5.7,,
Cc1ccc(N2CCN(CC3CC4C=CC3C4)CC2)cc1 (centres unmarked) [VI-c],0,7.6,0.159,16.9,33.8,7.5,0.0,100.0,64.2,10.0,100.0,84.2,100.0,> 50,,,
FC(F)(F)c1cccc(N2CCN(CC3CCCC3)CC2)c1 [VI-k],0,34.1,6.68,> 60,18.3,0.8,0.0,94.2,30.8,8.3,95.0,70.0,80.8,,> 60,,
"O[C@@H]1CCCC[C@H]1N1CCC(c2ccccc2)CC1 (racemic) [vesamicol, reference compound]",17.3,0,,21.1,0.0,0.0,0.0,0.0,0.8,0.0,11.7,1.7,0.0,,> 60,,0.0303
